EC50 and CC50 data for 24 molecules are collected here from US20060173069A1, “Therapeutic agent for hyperpotassemia and bone disease” (RIKEN, priority 2003, published 2006).

The structures appear in SMILES notation.

For one assay, the system named is mature osteoclasts. Briefly: Cell-death (apoptosis) inducing activity on mature osteoclasts, number of TRAP-stained multinuclear cells. The class given is cell-based, mouse. Particulars: Mus musculus, Osteoclast; RAW264-derived mature osteoclasts, 24 hours incubation, TRAP staining; read-out: ED50 level of cell-death inducing activity to mature osteoclasts, Number of cells. How it is done:
Using 29 different reveromycin A derivatives synthesized as described above, the cell-death inducing activities on the mature osteoclasts and undifferentiated macrophage-like cells derived from a mouse (RAW264 cells) were examined, respectively. The RAW264 cells, a mouse-macrophage cell line, were suspended in a 10% FBS-αMEM (manufactured by Gibco BRL Co., Ltd.) and then 12,000 cells/100 μl were inoculated in a 96-well plate. After 1-hour incubation, 100 μl of a culture medium containing RANKL ([…]) and PD98059 (40 μM) were added (final concentration: RANKL […] and PD98059 20 μM) and then incubated for 4 days to allow the differentiation of the cells to mature osteoclasts (J. Biol. Chem. Vol. 277, pp. 47366-47372 (2002)). Furthermore, on the second day of the culture, the half of the culture medium was replaced with new one. From each well of the plate where the cells were differentiated to the mature osteoclasts, 100 μl/well of the culture medium was removed. […] The apoptosis inducing activity was confirmed by the observation of agglutination of nuclei stained with 10 μM Hoechst 33258 for 10-minututes.

The subject of assay [1] is undifferentiated RAW264 cells. Kind of assay: Cell-death inducing activity on undifferentiated RAW264 cells, MTT method. The class given is cell-based, mouse. The conditions noted are these: Mus musculus, RAW264.7; 24 hours incubation, MTT; read-out: ED50 level of cell-death inducing activity to undifferentiated RAW264 cells, MTT. How it is done:
The cell-death inducing activities to the undifferentiated RAW264 cells were investigated by the MTT method (J. Immunol. Methods, Vol. 65, pp 55-63 (1983). The RAW 264 cells were plated on a 96-well plate at a density of 40,000 cells/100 μl and then incubated for 24 hours. After the 24-hour incubation, 50 μl of a culture medium containing a three-fold concentration of the drug was added and then incubated for 24 hours to investigate the cell-death inducing activity. Two hours before the measurement of the cell-death inducing activity, 15 μl of 0.5% MTT-PBS (phosphate buffer saline) was added and incubated. After that, the residue from which the culture solution was removed was dissolved in 100 μl of DMSO (dimethyl sulfoxide) and the absorbance at 570 nm (a reference wave length of 630 nm) was measured, followed by calculating the ED50 level of the cell-death inducing activity.
(Tetrazolium dyes change colour on reduction, which living cells bring about.)

On to `CCCC[C@@]1(O)CC[C@]2(CC[C@H](C)[C@@H](C/C=C(C)/C=C/[C@H](OC)[C@@H](C)/C=C/C(=O)OC)O2)O[C@H]1/C=C/C(C)=C/C(=O)OC` (mixture of isomers) [Compound 7], for which, in the assay on mature osteoclasts, the EC50 was greater than 51 µM. Also, in assay [1], the CC50 is greater than 169 µM.

As for `CCCC[C@@]1(O)CC[C@]2(CC[C@H](C)[C@@H](C/C=C(C)/C=C/[C@H](O)[C@@H](C)/C=C/C(=O)O)O2)O[C@H]1/C=C/C(C)=C/C(=O)O` (mixture of isomers) [Compound 11], the EC50 in the assay with mature osteoclasts came to 41 µM. For the same molecule, the CC50 in assay [1] is greater than 178 µM.

In the case of `CCCC[C@]1(C(/C=C/C(C)=C/C(=O)O)OC(=O)CCC(=O)O)CC[C@]2(CC[C@H](C)[C@@H](C/C=C(C)/C=C/[C@H](O)[C@@H](C)/C=C/C(=O)O)O2)O1` (stereo partly shown) [Compound 1], the EC50 in the assay on mature osteoclasts was greater than 45 µM. For the same molecule, the CC50 in assay [1] worked out at 132 µM.

With `CCCC[C@@]1(OC(=O)CCC(=O)O)CC[C@]2(CC[C@H](C)[C@@H](CCO)O2)O[C@H]1/C=C/C(C)=C/C(=O)O` [Compound 3], in the assay on mature osteoclasts, the EC50 was greater than 6 µM. Also, the CC50 in assay [1] is greater than 6 µM.

For `CCCC[C@@]1(OC(=O)CCC(=O)O)CC[C@]2(CC[C@H](C)[C@@H](C/C=C(\C)CO)O2)O[C@H]1/C=C/C(C)=C/C(=O)O` [Compound 4], in the assay on mature osteoclasts, the EC50 is greater than 5.6 µM. The CC50 in assay [1] is greater than 5.6 µM.

Take `CCCC[C@@]1(OC(=O)CCC(=O)O)CC[C@]2(CC[C@H](C)[C@@H](C/C=C(\C)COC(=O)CCC(=O)O)O2)O[C@H]1/C=C/C(C)=C/C(=O)O` [Compound 5]: the EC50 with mature osteoclasts was greater than 47 µM. Moreover, the CC50 in assay [1] was greater than 157 µM.

Consider `CCCC[C@]1([C@@H](O)/C=C/C(C)=C/C(=O)O)CC[C@]2(CC[C@H](C)[C@@H](C/C=C(C)/C=C/[C@H](O)[C@@H](C)/C=C/C(=O)O)O2)O1` [Compound 10], for which the EC50 with mature osteoclasts is greater than 54 µM. The CC50 in assay [1] is greater than 178 µM.

Consider `CCCC[C@@]1(OC(=O)CCC(=O)OC)CC[C@]2(CC[C@H](C)[C@@H](C/C=C(C)/C=C/[C@H](O[Si](C)(C)C(C)(C)C)[C@@H](C)/C=C/C(=O)OC)O2)O[C@H]1/C=C/C(C)=C/C(=O)O` [Compound 12], for which, in the assay with mature osteoclasts, the EC50 was found to be 0.6 µM. The CC50 in assay [1] was 1 µM.

Consider `CCCC[C@@]1(OC(=O)CCC(=O)O)CC[C@]2(CC[C@H](C)[C@@H](C/C=C(C)/C=C/[C@H](O)[C@@H](C)/C=C/C(=O)OC)O2)O[C@H]1/C=C/C(C)=C/C(=O)OC` [Compound 13], for which, in the assay on mature osteoclasts, the EC50 worked out at 2.5 µM. In assay [1], the CC50 is 7.6 µM.

Regarding `CCCC[C@@]1(OC(=O)CCC(=O)OC)CC[C@]2(CC[C@H](C)[C@@H](C/C=C(C)/C=C/[C@H](O)[C@@H](C)/C=C/C(=O)O)O2)O[C@H]1/C=C/C(C)=C/C(=O)OC` [Compound 14], the EC50 in the assay with mature osteoclasts was 3.3 µM. Further, the CC50 in assay [1] is 25 µM.

For `CCCC[C@@]1(OC(=O)CCC(=O)O)CC[C@]2(CC[C@H](C)[C@@H](C/C=C(C)/C=C/[C@H](O)[C@@H](C)/C=C/C(=O)OC)O2)O[C@H]1/C=C/C(C)=C/C(=O)O` [Compound 15], the EC50 with mature osteoclasts turned out to be 5.8 µM. The CC50 in assay [1] was determined as 25 µM.

With `CCCC[C@@]1(OC(=O)CCC(=O)OC)CC[C@]2(CC[C@H](C)[C@@H](C/C=C(C)/C=C/[C@H](O)[C@@H](C)/C=C/C(=O)OC)O2)O[C@H]1/C=C/C(C)=C/C(=O)OC` [Compound 16], in the assay with mature osteoclasts, the EC50 was 26 µM. Moreover, the CC50 in assay [1] is greater than 142 µM.

As to `CCCC[C@@]1(OC)CC[C@]2(CC[C@H](C)[C@@H](C/C=C/C(C)=C/C(=O)O)O2)O[C@H]1/C=C/C(C)=C/C(=O)O` [Compound 17], in the assay with mature osteoclasts, the EC50 is greater than 61 µM.

Consider `CCCC[C@@]1(OC(=O)CCC(=O)OC)CC[C@]2(CC[C@H](C)[C@@H](C/C=C(C)/C=C/C(C)O)O2)O[C@H]1/C=C/C(C)=C/C(=O)OC` (stereo partly shown) [Compound 19], for which the EC50 with mature osteoclasts worked out at 36 µM. Besides, the CC50 in assay [1] is greater than 50 µM.

Consider `CCCC[C@@]1(OC(=O)CCC(=O)OC)CC[C@]2(CC[C@H](C)[C@@H](C/C=C(C)/C=C/C(O)c3ccccc3)O2)O[C@H]1/C=C/C(C)=C/C(=O)OC` (stereo partly shown) [Compound 20], for which the EC50 in the assay with mature osteoclasts was greater than 45 µM. In addition, the CC50 in assay [1] was greater than 150 µM.

Take `CCCC[C@@]1(OC(=O)CCC(=O)OC)CC[C@]2(CC[C@H](C)[C@@H](C/C=C(C)/C=C/[C@H](O)[C@@H](C)/C=C/C(=O)O)O2)O[C@H]1/C=C/C(C)=C/C(=O)O` [Compound 21]: the EC50 with mature osteoclasts came out at 7.3 µM. In addition, the CC50 in assay [1] was found to be 21 µM.

As to `CCCC[C@@]1(OC(=O)CCC(=O)O)CC[C@]2(CC[C@H](C)[C@@H](C/C=C(C)/C=C/[C@H](O)[C@@H](C)/C=C/C(=O)O)O2)O[C@H]1/C=C/C(C)=C/C(=O)OC` [Compound 22], in the assay on mature osteoclasts, the EC50 came to 9.3 µM. For the same molecule, the CC50 in assay [1] was 53 µM.

Regarding `CCCC[C@@]1(OC(=O)CCC(=O)O)CC[C@]2(CC[C@H](C)[C@@H](C/C=C(C)/C=C/C(C)O)O2)O[C@H]1/C=C/C(C)=C/C(=O)OC` (stereo partly shown) [Compound 23], the EC50 in the assay on mature osteoclasts was greater than 17 µM. In assay [1], the CC50 is greater than 17 µM.

On to `CCCC[C@@]1(OC(=O)CCC(=O)O)CC[C@]2(CC[C@H](C)[C@@H](C/C=C(C)/C=C/C(O)c3ccccc3)O2)O[C@H]1/C=C/C(C)=C/C(=O)OC` (stereo partly shown) [Compound 24], for which the EC50 with mature osteoclasts is greater than 15 µM. Moreover, the CC50 in assay [1] is greater than 15 µM.

Take `CCCC[C@@]1(OC(=O)CCC(=O)O)CC[C@]2(CC[C@H](C)[C@@H](C/C=C(C)/C=C/[C@@H](C)O)O2)O[C@H]1/C=C/C(C)=C/C(=O)OC` [Compound 25]: the EC50 with mature osteoclasts was greater than 17 µM. Besides, the CC50 in assay [1] is greater than 17 µM.

For `CCCC[C@@]1(OC(=O)CCC(=O)O)CC[C@]2(CC[C@H](C)[C@@H](C/C=C(C)/C=C/[C@H](OC)[C@@H](C)/C=C/C(=O)O)O2)O[C@H]1/C=C/C(C)=C/C(=O)O` [Compound 26], in the assay with mature osteoclasts, the EC50 was greater than 44 µM. Besides, in assay [1], the CC50 was greater than 148 µM.

With `CCCC[C@@]1(OC)CC[C@]2(CC[C@H](C)[C@@H](C/C=C(C)/C=C/[C@H](O)[C@@H](C)/C=C/C(=O)O)O2)O[C@H]1/C=C/C(C)=C/C(=O)O` [Compound 1390-II], the EC50 in the assay on mature osteoclasts was greater than 5.2 µM.

For the molecule `CCCC[C@]1(C(/C=C/C(C)=C/C(=O)O)OC)CC[C@]2(CC[C@H](C)[C@@H](C/C=C(C)/C=C/[C@H](O)[C@@H](C)/C=C/C(=O)O)O2)O1` (stereo partly shown) [Compound 1392-II], the EC50 in the assay with mature osteoclasts is greater than 52 µM. In addition, the CC50 in assay [1] was greater than 174 µM.

On to `CCCC[C@@]1(OC(=O)CCC(=O)O)CC[C@]2(CC[C@H](C)[C@@H](C/C=C(C)/C=C/[C@H](O)[C@@H](C)/C=C/C(=O)O)O2)O[C@H]1/C=C/C(C)=C/C(=O)O` [Reveromycin A, reveromycin A, reference compound], for which, in the assay on mature osteoclasts, the EC50 was 0.18 µM. Also, in assay [1], the CC50 is 24 µM.
